Measurements from patent US20230103791A1 (GLAXOSMITHKLINE INTELLECTUAL PROPERTY DEVELOPMENT LIMITED, priority 2019, published 2023).

Target: T1, human Nav1.8 (Homo sapiens, UniProt Q9Y5Y9)
T1 construct: expressed in transfected cells; host or cells: HEK293 (HEK293-Nav1.8)
Test: Nav1.8 sodium channels assay, QPatch 48 HTX electrophysiology in HEK293-Nav1.8 cells
Type: cell-based
Conditions: at least one set of experimental runs; read-out: average pIC50 value against Nav1.8 (converted)
Protocol: Human embryonic kidney […] cells (HEK293) expressing human Nav1.8, human Navβ1 and human TREK1 (HEK293-Nav1.8) were grown at 37° C., 5% CO2 in 150 cm^2 flasks. HEK293-Nav1.8 were passaged every 2-3 days when confluency reached 80-90% in to T175 cell culture flasks.
Pharmacological assessment of the invention was performed using HEK293-Nav1.8 in combination with an assay developed on the QPatch 48 HTX electrophysiological system. HEK293-Nav1.8 were prepared on the day of use by removing culture media, washing in DPBS, adding Accutase (2 ml to cover the surface, aspirate 1 ml then 1.5 min at 37° C.) followed by addition of CHO-SFM II to stop the enzyme digestion and in order to obtain a suspension of 3×10^6 cell/mL.
The invention was prepared in an extracellular solution of the following composition (in mM) NaCl 145, KCl 4, CaCl2 2, MgCl 2, HEPES 1, Glucose 10, pH 7.4 with NaOH Osmolality 300 mOsM/L. The intracellular solution was used of the following composition (in mM) CsF 115, CsCl 20, NaCl 5, EGTA 10, HEPES 10, Sucrose 20, pH 7.2 with CsOH Osmolality 310 mOsm/L.
Utilizing the voltage-clamp mode in the QPatch 48 HTX system a half inactivation state voltage protocol (V1/2) was used to determine pharmacological activity of the invention at Nav1.8 ion channels. A V1/2 protocol was utilized with the following voltage steps: a holding voltage of −100 mV was established followed by a 20 ms voltage step to 0 mV (P1), followed by an inactivating voltage step at −46 mV for 8 seconds, followed by a step to −100 mV for 20 ms, before a 20 ms step to 0 mV (P2) before returning to the holding voltage of −100 mV. This voltage protocol was repeated at a frequency of 0.07 Hz., current magnitude was quantified at the P2 step throughout the recording. Inhibition of the measured current amplitude with the invention was analyzed by fitting a 6-8 point dose-response curve allowing determination of the fifty percent inhibition concentration (IC50). Within the QPatch HTX software, P2 current was normalized according to measurements made at baseline after compound and after positive reference compound and fit to the following equation: […]
To assess current run-down over the course of the experiment vehicle-only wells were utilized and the normalized current with vehicle-only (n.IVEH) was determined. To correct the compound response for run-down, the currents were correct according the following formula: […]
Compounds of the invention are tested for activity against Nav1. 8 sodium channels in the above assay.

T1 sequence (Q9Y5Y9 whole entry): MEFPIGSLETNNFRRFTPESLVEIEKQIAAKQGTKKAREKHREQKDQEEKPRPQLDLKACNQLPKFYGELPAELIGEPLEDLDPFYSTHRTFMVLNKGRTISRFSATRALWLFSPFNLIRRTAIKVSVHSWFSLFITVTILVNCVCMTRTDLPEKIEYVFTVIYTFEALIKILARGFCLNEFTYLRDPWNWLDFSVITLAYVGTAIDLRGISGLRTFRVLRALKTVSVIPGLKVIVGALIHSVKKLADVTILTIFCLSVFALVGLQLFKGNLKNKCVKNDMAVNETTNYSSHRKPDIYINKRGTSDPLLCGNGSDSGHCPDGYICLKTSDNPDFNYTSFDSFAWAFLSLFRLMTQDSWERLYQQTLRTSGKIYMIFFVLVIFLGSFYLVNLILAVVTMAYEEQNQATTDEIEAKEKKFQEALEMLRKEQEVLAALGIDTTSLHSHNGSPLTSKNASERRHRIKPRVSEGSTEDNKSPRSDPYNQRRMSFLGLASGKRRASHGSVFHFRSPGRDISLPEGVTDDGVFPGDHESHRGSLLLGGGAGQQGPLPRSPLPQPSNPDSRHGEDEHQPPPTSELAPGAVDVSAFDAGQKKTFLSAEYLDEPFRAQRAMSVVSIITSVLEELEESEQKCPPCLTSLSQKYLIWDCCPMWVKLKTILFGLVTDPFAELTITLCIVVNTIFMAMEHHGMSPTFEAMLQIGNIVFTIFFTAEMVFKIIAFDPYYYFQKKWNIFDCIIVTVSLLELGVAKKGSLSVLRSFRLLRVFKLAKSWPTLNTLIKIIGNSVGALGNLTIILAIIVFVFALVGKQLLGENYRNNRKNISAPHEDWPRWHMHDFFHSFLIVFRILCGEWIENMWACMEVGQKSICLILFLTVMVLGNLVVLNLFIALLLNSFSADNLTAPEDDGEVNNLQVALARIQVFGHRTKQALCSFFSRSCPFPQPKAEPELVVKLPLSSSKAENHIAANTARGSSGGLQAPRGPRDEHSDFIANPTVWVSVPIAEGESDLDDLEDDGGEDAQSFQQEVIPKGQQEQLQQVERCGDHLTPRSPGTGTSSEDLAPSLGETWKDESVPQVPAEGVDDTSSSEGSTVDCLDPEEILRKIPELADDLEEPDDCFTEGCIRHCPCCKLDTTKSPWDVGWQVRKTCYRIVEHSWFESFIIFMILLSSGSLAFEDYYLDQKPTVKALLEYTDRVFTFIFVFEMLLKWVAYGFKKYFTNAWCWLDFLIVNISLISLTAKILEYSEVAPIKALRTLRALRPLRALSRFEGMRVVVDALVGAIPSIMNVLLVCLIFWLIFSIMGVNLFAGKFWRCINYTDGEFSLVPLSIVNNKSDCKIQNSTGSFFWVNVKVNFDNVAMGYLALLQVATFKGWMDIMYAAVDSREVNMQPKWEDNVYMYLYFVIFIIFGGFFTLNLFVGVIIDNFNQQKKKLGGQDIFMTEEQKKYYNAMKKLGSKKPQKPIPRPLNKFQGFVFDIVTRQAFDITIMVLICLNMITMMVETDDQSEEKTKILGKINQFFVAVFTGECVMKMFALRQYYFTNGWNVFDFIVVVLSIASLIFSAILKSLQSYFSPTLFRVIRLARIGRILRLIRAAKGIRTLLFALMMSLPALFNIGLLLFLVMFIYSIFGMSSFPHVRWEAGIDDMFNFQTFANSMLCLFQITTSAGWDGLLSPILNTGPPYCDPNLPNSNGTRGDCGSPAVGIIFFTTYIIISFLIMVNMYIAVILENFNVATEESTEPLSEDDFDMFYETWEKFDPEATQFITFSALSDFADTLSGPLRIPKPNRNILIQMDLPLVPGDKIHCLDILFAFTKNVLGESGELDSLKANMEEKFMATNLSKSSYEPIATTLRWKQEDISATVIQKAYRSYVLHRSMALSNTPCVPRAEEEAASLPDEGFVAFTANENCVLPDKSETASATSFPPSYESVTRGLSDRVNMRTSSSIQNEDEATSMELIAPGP
T1 sequence (Q07699 19-218 partner): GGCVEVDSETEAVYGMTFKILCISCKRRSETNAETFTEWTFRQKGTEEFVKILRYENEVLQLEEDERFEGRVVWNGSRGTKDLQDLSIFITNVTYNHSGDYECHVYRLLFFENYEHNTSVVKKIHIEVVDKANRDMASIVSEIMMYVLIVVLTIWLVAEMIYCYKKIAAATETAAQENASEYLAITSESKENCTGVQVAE

| IC50 | Compound |
| --- | --- |
| 794 to 7940 nM | O=C1c2ccc(C(F)(F)F)cc2N(C2CCCCC2)CN1c1ccc(=O)[nH]c1 [Example 37, 1-cyclohexyl-3-(6-oxo-1,6-dihydropyridin-3-yl)-7-(trifluoromethyl)-2,3-dihydroquinazolin-4(1H)-one] |
| 794 to 7940 nM | Cc1cc(F)cc(C)c1N1CN(c2ccc(=O)[nH]c2)C(=O)c2ccc(C(F)(F)F)cc21 [Example 38, 1-(4-fluoro-2,6-dimethylphenyl)-3-(6-oxo-1,6-dihydropyridin-3-yl)-7-(trifluoromethyl)-2,3-dihydroquinazolin-4(1H)-one] |
| 794 to 7940 nM | Cc1cc(F)ccc1N1c2cc(C(F)(F)F)ccc2C(=O)N(c2ccc(=O)[nH]c2)C1C (stereo not shown) [Example 39, 1-(4-fluoro-2-methylphenyl)-2-methyl-3-(6-oxo-1,6-dihydropyridin-3-yl)-7-(trifluoromethyl)-2,3-dihydroquinazolin-4(1H)-one] |
| 126 to 631 nM | O=C1c2ccc(C(F)(F)F)cc2N(c2ccc(F)cc2Cl)CN1c1ccc(=O)[nH]c1 [Example 40, 1-(2-chloro-4-fluorophenyl)-3-(6-oxo-1,6-dihydropyridin-3-yl)-7-(trifluoromethyl)-2,3-dihydroquinazolin-4(1H)-one] |
| 794 to 7940 nM | O=C1c2ccc(C(F)(F)F)cc2N(c2ccc(F)cc2OCCO)CN1c1ccc(=O)[nH]c1 [Example 41, 1-(4-fluoro-2-(2-hydroxyeth-oxy)phenyl)-3-(6-oxo-1,6-dihydropyridin-3-yl)-7-(trifluoromethyl)-2,3-dihydroquinazolin-4(1H)-one] |
| 794 to 7940 nM | O=C1c2ccc(C(F)(F)F)cc2N(c2ccc(F)cc2F)CN1c1ccc(=O)[nH]c1 [Example 42, 1-(2,4-difluorophenyl)-3-(6-oxo-1,6-dihydropyridin-3-yl)-7-(trifluoromethyl)-2,3-dihydroquinazolin-4(1H)-one] |
| 126 to 631 nM | CCc1cc(F)ccc1N1CN(c2ccc(=O)[nH]c2)C(=O)c2ccc(C(F)(F)F)cc21 [Example 43, 1-(2-ethyl-4-fluorophenyl)-3-(6-oxo-1,6-dihydropyridin-3-yl)-7-(trifluoromethyl)-2,3-dihydroquinazolin-4(1H)-one] |
| 794 to 7940 nM | Cc1cc(F)ccc1N1CN(c2ccc(=O)[nH]c2)C(=O)c2ccc(C(F)(F)F)c(Cl)c21 [Example 44, 8-chloro-1-(4-fluoro-2-methylphenyl)-3-(6-oxo-1,6-dihydropyridin-3-yl)-7-(trifluoromethyl)-2,3-dihydroquinazolin-4(1H)-one] |
| 794 to 7940 nM | Cc1cc(F)ccc1N1CN(c2ccc(=O)[nH]c2)C(=O)c2ccc(C(F)(F)F)c(C)c21 [Example 45, 1-(4-fluoro-2-methylphenyl)-8-methyl-3-(6-oxo-1,6-dihydropyridin-3-yl)-7-(trifluoromethyl)-2,3-dihydroquinazolin-4(1H)-one] |
| 794 to 7940 nM | Cc1ncccc1N1CN(c2ccc(=O)[nH]c2C)C(=O)c2ccc(C(F)(F)F)cc21 [Example 46, 3-(2-methyl-6-oxo-1,6-dihydropyridin-3-yl)-1-(2-methylpyridin-3-yl)-7-(trifluoromethyl)-2,3-dihydroquinazolin-4(1H)-one] |
| ≤ 100 nM | Cc1[nH]c(=O)ccc1N1CN(c2ccc(F)cc2C(C)C)c2cc(C(F)(F)F)ccc2C1=O [Example 47, 1-(4-fluoro-2-isopropylphenyl)-3-(2-methyl-6-oxo-1,6-dihydropyridin-3-yl)-7-(trifluoromethyl)-2,3-dihydroquinazolin-4(1H)-one] |
| ≤ 100 nM | Cc1cc(F)ccc1N1CN(c2ccc(=O)[nH]c2C)C(=O)c2cc(Cl)ccc21 [Example 48, 6-chloro-1-(4-fluoro-2-methylphenyl)-3-(2-methyl-6-oxo-1,6-dihydropyridin-3-yl)-2,3-dihydroquinazolin-4(1H)-one] |
| 794 to 7940 nM | Cc1[nH]c(=O)ccc1N1CN(c2ccc(F)cc2)c2ccccc2C1=O [Example 49, 1-(4-fluorophenyl)-3-(2-methyl-6-oxo-1,6-dihydropyridin-3-yl)-2,3-dihydroquinazolin-4(1H)-one] |
| 126 to 631 nM | Cc1ccccc1N1CN(c2ccc(=O)[nH]c2C)C(=O)c2ccccc21 [Example 50, 3-(2-methyl-6-oxo-1,6-dihydropyridin-3-yl)-1-(o-tolyl)-2,3-dihydroquinazolin-4(1H)-one] |
| ≤ 100 nM | Cc1ccc2c(c1)C(=O)N(c1ccc(=O)[nH]c1C)CN2c1ccc(F)cc1C [Example 51, 1-(4-f1uoro-2-methylphenyl)-6-methyl-3-(2-methyl-6-oxo-1,6-dihydropyridin-3-yl)-2,3-dihydroquinazolin-4(1H)-one] |

The remaining lines, values behind:

| Compound | IC50 |
| --- | --- |
| Cc1cnccc1N1CN(c2ccc(F)cc2C)c2ccc(C(F)(F)F)cc2C1=O [Example 16, 1-(4-fluoro-2-methylphenyl)-3-(3-methylpyridin-4-yl)-6-(trifluoromethyl)-2,3-dihydroquinazolin-4(1H)-one] | 126 to 631 nM |
| Cc1cc(F)ccc1N1CN(C2CCS(=O)(=O)CC2)C(=O)c2ccc(C(F)(F)F)cc21 [Example 17, 3-(1,1-dioxidotetrahydro-2H-thiopyran-4-yl)-1-(4-fluoro-2-methylphenyl)-7-(trifluoromethyl)-2,3-dihydroquinazolin-4(1H)-one] | 794 to 7940 nM |
| Cc1cc(F)ccc1N1CN(c2cn[nH]c2)C(=O)c2cc(C(F)(F)F)ccc21 [Example 18, 1-(4-fluoro-2-methylphenyl)-3-(1H-pyrazol-4-yl)-6-(trifluoromethyl)-2,3-dihydroquinazolin-4(1H)-one] | 794 to 7940 nM |
| COc1ccc(N2CN(c3ccc(F)cc3C)c3ccc(C(F)(F)F)cc3C2=O)c(C)n1 [Example 19, 1-(4-fluoro-2-methylphenyl)-3-(6-methoxy-2-methylpyridin-3-yl)-6-(trifluoromethyl)-2,3-dihydroquinazolin-4(1H)-one] | 794 to 7940 nM |
| Cc1cc(F)ccc1N1CN(c2n[nH]c(=O)cc2C)C(=O)c2ccc(C(F)(F)F)cc21 [Example 20, 1-(4-fluoro-2-methylphenyl)-3-(4-methyl-6-oxo-1,6-dihydropyridazin-3-yl)-7-(trifluoromethyl)-2,3-dihydroquinazolin-4(1H)-one] | 794 to 7940 nM |
| Cc1cnccc1N1CN(c2ccc(OC(F)(F)F)cc2C)c2ccc(C(F)(F)F)cc2C1=O [Example 21, 1-(2-methyl-4-(trifluoromethoxy)phenyl)-3-(3-methylpyridin-4-yl)-6-(trifluoromethyl)-2,3-dihydroquinazolin-4(1H)-one] | 126 to 631 nM |
| Cc1cc(Cl)ncc1N1CN(c2ccc(F)cc2C)c2ccc(C(F)(F)F)cc2C1=O [Example 22, 3-(6-chloro-4-methylpyridin-3-yl)-1-(4-fluoro-2-methylphenyl)-6-(trifluoromethyl)-2,3-dihydroquinazolin-4(1H)-one] | 794 to 7940 nM |
| Cc1cnccc1N1CN(c2ccc(F)cc2C)c2cc(C(F)F)c(Cl)cc2C1=O [Example 23, 6-chloro-7-(difluoromethyl)-1-(4-fluoro-2-methylphenyl)-3-(3-methylpyridin-4-yl)-2,3-dihydroquinazolin-4(1H)-one] | 126 to 631 nM |
| Cc1cc(F)ccc1N1CN(c2c[nH]nc2C)C(=O)c2cc(C(F)(F)F)ccc21 [Example 28, 1-(4-fluoro-2-methylphenyl)-3-(3-methyl-1H-pyrazol-4-yl)-6-(trifluoromethyl)-2,3-dihydroquinazolin-4(1H)-one] | 126 to 631 nM |
| Cc1cc(F)ccc1N1CN([C@H]2CCC(=O)N[C@@H]2C)C(=O)c2cc(C(F)(F)F)ccc21 [Example 33, 1-(4-fluoro-2-methylphenyl)-3-((2R,3S)-2-methyl-6-oxopiperidin-3-yl)-6-(trifluoromethyl)-2,3-dihydroquinazolin-4(1H)-one] | ≤ 100 nM |
| Cc1cc(F)ccc1N1CN(C2CCC(=O)NC2=O)C(=O)c2cc(C(F)(F)F)ccc21 (stereo not shown) [Example 34, 3-(1-(4-fluoro-2-methylphenyl)-4-oxo-6-(trifluoromethyl)-1,4-dihydroquinazolin-3(2H)-yl)piperidine-2,6-dione] | 126 to 631 nM |
| Cc1cc(F)ccc1N1CN(c2ccc(=O)[nH]c2C)C(=O)c2ccc(C(F)(F)F)cc21 [Example 35, 1-(4-Fluoro-2-methylphenyl)-3-(2-methyl-6-oxo-1,6-dihydropyridin-3-yl)-7-(trifluoromethyl)-2,3-dihydroquinazolin-4(1H)-one] | ≤ 100 nM |
| Cc1cc(F)ccc1N1CN(c2ccc(=O)[nH]c2)C(=O)c2ccc(C(F)(F)F)cc21 [Example 36, 1-(4-fluoro-2-methylphenyl)-3-(6-oxo-1,6-dihydropyridin-3-yl)-7-(trifluoromethyl)-2,3-dihydroquinazolin-4(1H)-one] | 126 to 631 nM |
